Data as given in EPA's aquatic toxicity sets.

Tested on: Tetrahymena pyriformis
Assay: 48 h IGC50 (-log10 mol/L); higher = more toxic

SMILES | 48 h IGC50 (-log10 mol/L)
CCCCOC(=O)/C=C/c1ccccc1 | 4.53
COc1ccc(C(=O)c2ccccc2)c(O)c1 | 4.42
CCCCCCCCCCC(C)O (configuration not stated) | 4.66
OC(CCl)CCl | 2.21
N#CC(C#N)=Cc1ccco1 | 3.94
CC(O)CCO (configuration not stated) | 0.699
SC1CCCCC1 | 3
CCCCCc1ccc(O)cc1 | 4.58
CCOC(=O)CCBr | 3.13
CN(C)Cc1ccccc1 | 3.12
Cc1ccccc1C#N | 2.76
ClC(Cl)c1ccccc1 | 3.11
CCOC(=O)CCCCCCC(=O)OCC | 3.7
OCc1ccccc1-c1ccccc1 | 3.82
OCc1c(F)c(F)c(F)c(F)c1F | 2.8
Cc1ccccc1C(=O)c1ccccc1 | 4.37
N#CC(Cl)Cl | 3.97
C[C@H](N=C=S)c1ccccc1 | 5.7
Sc1ccccc1 | 4.66
CNCCO | 1.18
CCCNC(N)=S | 2.31
CC(C)COC(=O)C(C)C | 2.41
O=[N+]([O-])c1ccc(Br)nc1 | 4.07
NCCCCc1ccccc1 | 3.62
O=[N+]([O-])c1ccc(CO)cc1 | 3.12

SMILES | 48 h IGC50 (-log10 mol/L)
O=C(Cc1ccccc1)c1ccc(O)cc1 | 4.07
O=[N+]([O-])/C=C/c1ccco1 | 5.04
CCCC(=O)CCC | 2.33
CC#CC(O)CC (configuration not stated) | 2.81
CC(C)c1ccc(C=O)cc1 | 3.67
CCOC(=O)C(C)C | 1.73
N#CCBr | 5.23
O=C(O)CCCl | 2.67
CCCCCCC(Br)C(=O)OCC (configuration not stated) | 4.5
Oc1cccc(I)c1 | 4.12
CCCNC | 2.19
CCCCCCC(=O)c1ccccc1 | 4.56
OCCCCCc1ccccc1 | 3.42
CCOC(=O)C(NC(C)=O)C(=O)OCC | 1.8
CC(C)N | 2.14
O=Cc1ccc(O)cc1Cl | 3.89
O=Cc1ccc(Cl)o1 | 3.07
Cc1cc(O)c(C(C)C)cc1Cl | 4.85
Oc1c(Cl)c(Cl)c(O)c(Cl)c1Cl | 5.11
OCCCCCCc1ccccc1 | 3.87
CCCOS(=O)OCCC | 3.09
CC/C=C/CBr | 3.77
Cc1[nH]cnc1C=O | 2.07
CCc1cc(O)ccc1Cl | 4.08
O=C1CCCO1 | 1.28

SMILES | 48 h IGC50 (-log10 mol/L)
CC(=O)O[C@@H]1C[C@@H]2CC[C@@]1(C)C2(C)C | 3.68
O/N=C\c1ccccc1 | 2.89
Cc1cc(O)ccc1O | 4.86
C=COC(=O)CCCCCCC | 2.7
ClCC=CCCl | 4.02
CCC(N)=O | 0.91
CCCC#CC(=O)OCC | 3.7
C#CCOC(=O)CC | 2.35
CCOc1cccc2ccccc12 | 4.25
C/C=C/CCCO | 2.25
Cc1cc(Br)cc(Cl)c1O | 4.28
CCOC(=O)C[C@H](C)O | 1.47
Cc1cccc(N)c1 | 2.72
CCCC(C)O (configuration not stated) | 1.84
Cc1ccc2ccccc2c1[N+](=O)[O-] | 4.04
Oc1ccc(O)c(Br)c1 | 4.68
N#Cc1ccccc1O | 3.04
Nc1ccc(O)c(N)c1 | 3.13
Cc1ccsc1 | 2.3
COc1cc(CCO)ccc1O | 2.82
CCCCC/C=C/C(=O)OC | 3.77
Clc1cc(Cl)cc(Cl)c1 | 3.87
CC(C)C[C@H](N)CO | 2.38
OCC#CCO | 1.12
CC(C)C=CC=O | 3.82

SMILES | 48 h IGC50 (-log10 mol/L)
c1cn[nH]c1 | 1.29
CCOC(=O)C=C(C)C | 2.52
c1ccnnc1 | 1.59
COCC(C)N (configuration not stated) | 2.17
CCC#CC(C)O (configuration not stated) | 3.51
CNCC(O)CO (configuration not stated) | 1.47
CCCCCCN=C=S | 4.75
Oc1ccc(Br)cc1 | 3.68
O=Cc1cc(O)c(O)c(O)c1 | 2.8
CCCCCCCC(=O)OC | 3.54
N#Cc1ccccc1C(N)=O | 2.68
Nc1ncc([N+](=O)[O-])cn1 | 2.57
CCC#CCO | 2.43
c1ccc2nc3ccccc3nc2c1 | 4.4
CCCCOC(=O)CCCCCCC(=O)OCCCC | 4.66
CCCCC(O)CC (configuration not stated) | 2.51
NC(=O)c1ccccc1[N+](=O)[O-] | 2.28
Cc1nc2ccccc2nc1C | 3.25
C=CCI | 3.8
C=CCOC(=O)C=CC | 2.52
CNc1ccc(C(=O)OC)cc1 | 3.31
O=C(O)CCC(=O)O | 2.06
CCCCCCCCC(C)O (configuration not stated) | 3.99
OCc1ccc(Cl)cc1 | 3.25
C=CC(C)(C)O | 1.61

SMILES | 48 h IGC50 (-log10 mol/L)
O=[N+]([O-])c1cc(Br)c(O)c(Br)c1 | 4.36
O=C(O)CCCCCCCCCCC(=O)O | 2.91
COc1cc(O)cc(Cl)c1 | 3.76
ClCCCc1ccccc1 | 3.5
CCCCCCC/C=C/C=O | 4.85
Nc1cccc(I)c1 | 3.65
OC(c1ccccc1)c1ccccc1 | 3.5
Cc1ccc(O)c(O)c1 | 3.37
C/C=C(\C)C(=O)OC | 2.38
NCCCCCO | 1.24
Oc1ccc(O)c(O)c1 | 3.44
NC(=O)c1cc(Cl)ccc1[N+](=O)[O-] | 2.68
CCCCCC/C=C/CO | 3.75
CCC#CCC(C)O (configuration not stated) | 2.38
COc1cc(C#N)ccc1O | 2.97
CCCCCCCC=CCO | 4.13
CCCCCCCCCCC=O | 4.69
CC(=S)Nc1ccccc1 | 2.99
CC(C)COC(=O)c1ccccc1 | 3.98
NC(=O)CBr | 4.52
CC(C)CC(=O)O | 2.66
C/C=C/C(=O)OC(C)(C)C | 2.36
O=C(O)c1c(Cl)cc(Cl)cc1Cl | 2.59
CC(=O)C(Cl)Cl | 3.64
Nc1ccccc1Cl | 2.83

SMILES | 48 h IGC50 (-log10 mol/L)
CC(C)c1ccc(Br)cc1 | 3.85
OCc1ccc2ccccc2c1 | 3.39
Oc1ccc(C(F)(F)F)cc1 | 3.62
O=[N+]([O-])c1cc(Cl)c(Cl)c([N+](=O)[O-])c1Cl | 5.6
O=C(O)c1ccccc1Br | 2.53
CCCCCCNC(N)=S | 3.86
COC(=O)CCl | 3.89
CCCCCCOC(=O)c1ccccc1 | 4.94
CCCC(C)N (configuration not stated) | 2.31
CCCC#CCC(O)CC (configuration not stated) | 2.96
O=C/C=C/c1ccccc1 | 3.68
CC(=O)C(Cl)C(C)=O | 4.44
Brc1ccsc1 | 2.96
NNC(=O)c1ccccc1O | 3.18
O=C1CCC(=O)CC1 | 1.33
Oc1c(F)c(F)cc(F)c1F | 4.17
CCCCCCCN | 3.21
CCCC#CC(=O)OC | 3.76
CCCCCOC=O | 2.22
Cc1cccc(C)c1N | 2.57
CCCCCC1CCCC(=O)O1 (configuration not stated) | 2.92
OCc1ccccc1O | 2.05
N#CCCCCBr | 2.79
C=COC(=O)CCCCC | 3.08
CC(C)CC#N | 2.12

SMILES | 48 h IGC50 (-log10 mol/L)
CCN(CC)CCO | 1.5
ClCCc1ccccc1 | 3.17
O=Cc1cc(C(F)(F)F)cc(Cl)c1F | 4.24
Cc1c(O)cccc1[N+](=O)[O-] | 3.78
CCCCCOc1ccc(N)cc1 | 3.97
CCCCC(Br)C(=O)O (configuration not stated) | 3.46
CC(N)c1ccccc1 (configuration not stated) | 2.82
O=[N+]([O-])c1ccc(Cl)cc1Cl | 3.99
CCOC(=O)C=C(OCC)OCC | 2.35
OCCCBr | 2.07
CC(C)(C)c1ccncc1 | 3.2
CCCCCCCCCO | 3.85
Clc1ccccn1 | 2.16
Cc1ccc(C)c(O)c1 | 3.14
CCCC(=O)NN | 2.03
NC(=O)CCCl | 1.41
CC(=O)c1ccc(O)c(C(N)=O)c1 | 2.9
CNCCc1ccccc1 | 2.59
Cc1ccc(CCN)cc1 | 2.96
Cc1cc2ccccc2o1 | 3.62
CCCCCCCCOC(C)=O | 4.06
Cc1ccc(O)cc1[N+](=O)[O-] | 3.74
